Biological target: T1, N-terminally GST-tagged DLK (catalytic domain amino acid 1-520) (Homo sapiens, UniProt Q12852)
T1 construct: N-terminally GST-tagged DLK (catalytic domain amino acid 1-520); purchased Carna Bioscience
T1 sequence (Q12852 1-520): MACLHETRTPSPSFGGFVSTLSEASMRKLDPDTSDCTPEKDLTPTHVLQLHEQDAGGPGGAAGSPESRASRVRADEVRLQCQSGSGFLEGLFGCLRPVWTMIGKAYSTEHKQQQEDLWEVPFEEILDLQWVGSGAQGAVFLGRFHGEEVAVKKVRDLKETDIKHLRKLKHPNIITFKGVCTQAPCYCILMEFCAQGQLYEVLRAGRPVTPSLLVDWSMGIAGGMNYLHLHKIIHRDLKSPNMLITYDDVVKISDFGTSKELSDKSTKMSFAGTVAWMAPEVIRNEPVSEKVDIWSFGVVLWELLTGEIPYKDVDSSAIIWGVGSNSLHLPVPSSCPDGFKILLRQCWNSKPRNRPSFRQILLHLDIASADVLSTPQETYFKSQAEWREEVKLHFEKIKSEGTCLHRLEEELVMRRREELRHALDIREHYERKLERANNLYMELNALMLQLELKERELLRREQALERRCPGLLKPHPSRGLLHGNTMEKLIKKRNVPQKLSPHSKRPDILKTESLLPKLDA
Assay: DLK TR-FRET inhibition assay
Assay type: biochemical
Conditions: 5 nM GST-DLK, 40 nM HIS-MKK4 K131M substrate, 30 μM ATP, 60 minutes at ambient temperature
Outline: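 Phosphorylated MKK4 was quantified by TR-FRET (Eu-labelled anti-phospho-MKK4, D2 anti-HIS; 3 h, 665 and 615 nm emission) after EDTA quench. Reactions held 5 nM GST-tagged DLK catalytic domain (1-520), 40 nM HIS-MKK4 K131M substrate, 30 μM ATP and compound (3-fold series from 20 uM), 60 min, room temperature, pH 7.5.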

Compound	Ki [nM]
CC(C)n1nc(-c2cnc(N)c(C(F)(F)F)c2)cc1[C@H]1[C@@H]2C[C@H](N3CCOC[C@@H]3C)C[C@@H]21 [compound 98, 5-(1-isopropyl-5-((1R,3r,5S,6S)-3-((S)-3-methylmorpholino)bicyclo[3.1.0]hexan-6-yl)-1H-pyrazol-3-yl)-3-(trifluoromethyl) pyridin-2-amine]	4.89
CC(C)n1nc(-c2cnc(N)c(OC(F)(F)F)c2)cc1[C@H]1[C@@H]2C[C@@H](N3CCCOCC3)C[C@@H]21 [compound 99, 5-(5-((1R,3s,5S,6r)-3-(1,4-oxazepan-4-yl)bicyclo[3.1.0]hexan-6-yl)-1-isopropyl-1H-pyrazol-3-yl)-3-(trifluoromethoxy)pyridin-2-amine]	1.16
CC(C)n1nc(-c2cnc(N)c(C(F)(F)F)c2)cc1[C@H]1[C@@H]2C[C@H](N3CCCOCC3)C[C@@H]21 [compound 100, 5-(5-((1R,3r,5S,6r)-3-(1,4-oxazepan-4-yl)bicyclo[3.1.0]hexan-6-yl)-1-isopropyl-1H-pyrazol-3-yl)-3-(trifluoromethyl)pyridin-2-amine]	1.03
CC(C)n1nc(-c2cnc(N)c(OC(F)(F)F)c2)cc1[C@H]1[C@@H]2C[C@H](N3CCCOCC3)C[C@@H]21 [compound 101, 5-(5-((1R,3r,5S,6r)-3-(1,4-oxazepan-4-yl)bicyclo[3.1.0]hexan-6-yl)-1-isopropyl-1H-pyrazol-3-yl)-3-(trifluoromethoxy)pyridin-2-amine]	0.44
CC(C)n1nc(-c2cnc(N)c(C(F)(F)F)c2)cc1[C@H]1[C@@H]2C[C@@H](N3CCCOCC3)C[C@@H]21 [compound 102, 5-(5-((1R,3s,5S,6r)-3-(1,4-oxazepan-4-yl)bicyclo[3.1.0]hexan-6-yl)-1-isopropyl-1H-pyrazol-3-yl)-3-(trifluoromethyl)pyridin-2-amine]	0.79
CC(C)n1nc(-c2cnc(N)c(C(F)(F)F)c2)cc1[C@H]1[C@@H]2C[C@@H](N3CCOC[C@@H]3C)C[C@@H]21 [compound 103, 5-(1-isopropyl-5-((1R,3s,5S,6S)-3-((S)-3-methylmorpholino)bicyclo[3.1.0]hexan-6-yl)-1H-pyrazol-3-yl)-3-(trifluoromethyl) pyridin-2-amine]	1.28
CC(C)n1nc(-c2cnc(N)c(OC(F)(F)F)c2)cc1[C@H]1[C@@H]2C[C@@H](N3CCOC[C@@H]3C)C[C@@H]21 [compound 104, 5-(1-isopropyl-5-((1R,3s,5S,6S)-3-((S)-3-methylmorpholino)bicyclo[3.1.0]hexan-6-yl)-1H-pyrazol-3-yl)-3-(trifluoromethoxy) pyridin-2-amine]	2.43
CC(C)n1nc(-c2cnc(N)c(OC(F)F)c2)cc1[C@H]1[C@@H]2CC(C)(O)C[C@@H]21 (stereo partly drawn) [compound 105, (1R,5S,6r)-6-(3-(6-amino-5-(difluoro-methoxy)pyridin-3-yl)-1-isopropyl-1H-pyrazol-5-yl)-3-methyl-bicyclo[3.1.0]hexan-3-ol]	18.3
CC(C)n1nc(-c2cnc(N)c(C(=O)N3CCCC3)c2)cc1[C@H]1[C@@H]2C[C@@H](N3CC(F)C3)C[C@@H]21 [compound 106, (2-amino-5-(5-((1R,3s,5S,6r)-3-(3-fluoroazetidin-1-yl)bicyclo [3.1.0]hexan-6-yl)-1-isopropyl-1H-pyrazol-3-yl)pyridin-3-yl) (pyrrolidin-1-yl)methanone]	> 321
CC(C)n1nc(-c2cnc(N)c(C(=O)N3CCCC3)c2)cc1[C@H]1[C@@H]2C[C@H](N3CC(F)C3)C[C@@H]21 [compound 107, (2-amino-5-(5-((1R,3r,5S,6r)-3-(3-fluoroazetidin-1-yl)bicyclo [3.1.0]hexan-6-yl)-1-isopropyl-1H-pyrazol-3-yl)pyridin-3-yl) (pyrrolidin-1-yl)methanone]	> 321
CC(C)n1nc(-c2cnc(N)c(C(F)(F)F)c2)cc1[C@H]1[C@@H]2C[C@H](N3CCO[C@@H](C)C3)C[C@@H]21 [compound 108, 5-(1-isopropyl-5-((1R,3r,5S,6S)-3-((S)-2-methylmorpholino)bicyclo[3.1.0]hexan-6-yl)-1H-pyrazol-3-yl)-3-(trifluoromethyl) pyridin-2-amine]	1.6
CC(C)n1nc(-c2cnc(N)c(OC(F)(F)F)c2)cc1[C@H]1[C@@H]2C[C@H](N3CCO[C@@H](C)C3)C[C@@H]21 [compound 109, 5-(1-isopropyl-5-((1R,3r,5S,6S)-3-((S)-2-methylmorpholino)bicyclo[3.1.0]hexan-6-yl)-1H-pyrazol-3-yl)-3-(trifluoromethoxy) pyridin-2-amine]	1.59
CC(C)n1nc(-c2cnc(N)c(C(F)(F)F)c2)cc1[C@H]1[C@@H]2C[C@@H](n3cccn3)C[C@@H]21 [compound 110, 5-(5-((1R,3s,5S,6r)-3-(1H-pyrazol-1-yl)bicyclo[3.1.0]hexan-6-yl)-1-isopropyl-1H-pyrazol-3-yl)-3-(trifluoromethyl)pyridin-2-amine]	3.89
CC(C)n1nc(-c2cnc(N)c(C(F)(F)F)c2)cc1[C@H]1[C@@H]2C[C@H](n3cccn3)C[C@@H]21 [compound 111, 5-(5-((1R,3r,5S,6r)-3-(1H-pyrazol-1-yl)bicyclo[3.1.0]hexan-6-yl)-1-isopropyl-1H-pyrazol-3-yl)-3-(trifluoromethyl)pyridin-2-amine]	8.61
CC(C)n1nc(-c2cnc(N)c(C(F)(F)F)c2)cc1[C@H]1[C@@H]2C[C@@H](N3CCO[C@@H](C)C3)C[C@@H]21 [compound 112, 5-(1-isopropyl-5-((1R,3s,5S,6S)-3-((S)-2-methylmorpholino)bicyclo[3.1.0]hexan-6-yl)-1H-pyrazol-3-yl)-3-(trifluoromethyl) pyridin-2-amine]	5.87
CC(C)n1nc(-c2cnc(N)c(OC(F)(F)F)c2)cc1[C@H]1[C@@H]2C[C@@H](N3CCO[C@@H](C)C3)C[C@@H]21 [compound 113, 5-(1-isopropyl-5-((1R,3s,5S,6S)-3-((S)-2-methylmorpholino)bicyclo[3.1.0]hexan-6-yl)-1H-pyrazol-3-yl)-3-(trifluoromethoxy) pyridin-2-amine]	4.23
CC(C)n1nc(-c2cnc(N)c(C(F)(F)F)c2)cc1[C@H]1[C@@H]2C[C@@H](n3ccnc3)C[C@@H]21 [compound 114, 5-(5-((1R,3s,5S,6r)-3-(1H-imidazol-1-yl)bicyclo[3.1.0]hexan-6-yl)-1-isopropyl-1H-pyrazol-3-yl)-3-(trifluoromethyl)pyridin-2-amine]	15.1
CC(C)n1nc(-c2cnc(N)c(C(F)(F)F)c2)cc1[C@H]1[C@@H]2C[C@H](n3ccnc3)C[C@@H]21 [compound 115, 5-(5-((1R,3r,5S,6r)-3-(1H-imidazol-1-yl)bicyclo[3.1.0]hexan-6-yl)-1-isopropyl-1H-pyrazol-3-yl)-3-(trifluoromethyl)pyridin-2-amine]	9.19
CC(C)n1nc(-c2cnc(N)c(C(F)(F)F)c2)cc1[C@H]1[C@@H]2C[C@H](N3CCN(C4COC4)CC3)C[C@@H]21 [compound 116, 5-(1-isopropyl-5-((1R,3r,5S,6r)-3-(4-(oxetan-3-yl)piperazin-1-yl)bicyclo[3.1.0]hexan-6-yl)-1H-pyrazol-3-yl)-3-(trifluoromethyl) pyridin-2-amine]	7.79

Reference: patent US9365583B2, “Substituted pyrazoles and uses thereof” (Genentech, Inc., priority 2013, dated 2016)
